Values quoted from earlier work as cited in patent US20140073698A1 (Aventis Pharma S.A., priority 2011, published 2014).

Conditions: @pH=1; simulation input

## CC(C(=O)O)c1cccc(C(=O)c2ccccc2)c1 (stereo not shown) [Ketoprofen, 2-(3-benzoylphenyl)propionic acid]
  Reference Log D: 3.16
